# According to patent US20260042731A1, “(2,4-DICHLOROPHENOXY)ACETIC ACID ANALOGS” (CORTEVA AGRISCIENCE LLC, priority 2022, published 2026):
# Where “and” joins values, the source holds several entries; their conditions need not be identical. Identical values can stand only once. Like-named read-outs stand apart in the source and are kept apart here.
# How the values were obtained:
# [1] = tested on: Abutilon theophrasti (ABUTH), velvetleaf; test: Postemergence herbicide evaluation, growth of Abutilon theophrasti (ABUTH); assay type: in vivo; conditions: Abutilon theophrasti, post-emergence, read-out: AVE. ABUTH, percent reduction in plant size relative to the untreated control; for pest or weed control at 280 g/ha: 280 g ae/ha; for pest or weed control at 560 g/ha: 560 g ae/ha
# [2] = tested on: Ambrosia artemisiifolia (AMBEL), common ragweed; test: Postemergence herbicide evaluation, growth of Ambrosia artemisiifolia (AMBEL); assay type: in vivo; conditions: Ambrosia artemisiifolia, post-emergence, read-out: AVE. AMBEL, percent reduction in plant size relative to the untreated control; for pest or weed control at 280 g/ha: 280 g ae/ha; for pest or weed control at 560 g/ha: 560 g ae/ha
# [3] = tested on: weeds ABUTH, AMATA, AMBEL, CHEAL, ERICA; test: Postemergence herbicide evaluation, overall average % weed control (ABUTH, AMATA, AMBEL, CHEAL, ERICA); assay type: in vivo; conditions: post-emergence, read-out: Overall Ave % Weed Control; for pest or weed control at 280 g/ha: 280 g ae/ha; for pest or weed control at 560 g/ha: 560 g ae/ha
# [4] = tested on: Amaranthus rudis (AMATA), tall water hemp; test: Postemergence herbicide evaluation, growth of Amaranthus rudis (AMATA); assay type: in vivo; conditions: Amaranthus tuberculatus, post-emergence, read-out: Ave. AMATA, percent reduction in plant size relative to the untreated control; for pest or weed control at 280 g/ha: 280 g ae/ha; for pest or weed control at 560 g/ha: 560 g ae/ha
# [5] = tested on: Chenopodium album (CHEAL), common lambsquarters; test: Postemergence herbicide evaluation, growth of Chenopodium album (CHEAL); assay type: in vivo; conditions: Chenopodium album, post-emergence, read-out: Ave. CHEAL, percent reduction in plant size relative to the untreated control; for pest or weed control at 280 g/ha: 280 g ae/ha; for pest or weed control at 560 g/ha: 560 g ae/ha
# [6] = Volatility of compounds measured by thermogravimetric analysis (TGA); assay type: physicochemical
# [7] = tested on: glyphosate resistant Conyza canadensis (L.) (ERICA), horseweed; test: Postemergence herbicide evaluation, growth of Conyza canadensis (ERICA); assay type: in vivo; conditions: Erigeron canadensis, post-emergence, read-out: Ave. ERICA, percent reduction in plant size relative to the untreated control; for pest or weed control at 280 g/ha: 280 g ae/ha; for pest or weed control at 560 g/ha: 560 g ae/ha
smiles,measurement,setting,value
O=C(COc1ccc(Cl)cc1Cl)O/N=C/c1cccnc1 [Compound A29],pest or weed control at 280 g/ha,"[1]; 168 h, 7 DAA",50%
same,pest or weed control at 560 g/ha,"[1]; 168 h, 7 DAA",70%
same,pest or weed control at 280 g/ha,"[1]; 336 h, 14 DAA",67.5%
same,pest or weed control at 560 g/ha,"[1]; 336 h, 14 DAA",82.5%
same,pest or weed control at 280 g/ha,"[1]; 504 h, 21 DAA",77.5%
same,pest or weed control at 560 g/ha,"[1]; 504 h, 21 DAA",97.5%
same,pest or weed control at 280 g/ha,"[2]; 168 h, 7 DAA",77.5%
same,pest or weed control at 560 g/ha,"[2]; 168 h, 7 DAA",77.5%
same,pest or weed control at 280 g/ha,"[2]; 336 h, 14 DAA",75%
same,pest or weed control at 560 g/ha,"[2]; 336 h, 14 DAA",100%
same,pest or weed control at 280 g/ha,"[2]; 504 h, 21 DAA",100%
same,pest or weed control at 560 g/ha,"[2]; 504 h, 21 DAA",100%
same,pest or weed control at 280 g/ha,"[3]; 168 h, 7 DAA",71.5%
same,pest or weed control at 560 g/ha,"[3]; 168 h, 7 DAA",79.7%
same,pest or weed control at 280 g/ha,"[3]; 336 h, 14 DAA",85.8%
same,pest or weed control at 560 g/ha,"[3]; 336 h, 14 DAA",94.7%
same,pest or weed control at 280 g/ha,"[3]; 504 h, 21 DAA",88.1%
same,pest or weed control at 560 g/ha,"[3]; 504 h, 21 DAA",98.3%
same,pest or weed control at 280 g/ha,"[4]; 168 h, 7 DAA",70%
same,pest or weed control at 560 g/ha,"[4]; 168 h, 7 DAA",91%
same,pest or weed control at 280 g/ha,"[4]; 336 h, 14 DAA",90%
same,pest or weed control at 560 g/ha,"[4]; 336 h, 14 DAA",97%
same,pest or weed control at 280 g/ha,"[4]; 504 h, 21 DAA",72.5%
same,pest or weed control at 560 g/ha,"[4]; 504 h, 21 DAA",100%
same,pest or weed control at 280 g/ha,"[5]; 168 h, 7 DAA",82.5%
same,pest or weed control at 560 g/ha,"[5]; 168 h, 7 DAA",77.5%
same,pest or weed control at 280 g/ha,"[5]; 336 h, 14 DAA",96.5%
same,pest or weed control at 560 g/ha,"[5]; 336 h, 14 DAA",95%
same,pest or weed control at 280 g/ha,"[5]; 504 h, 21 DAA",91.5%
same,pest or weed control at 560 g/ha,"[5]; 504 h, 21 DAA",97.5%
same,"TGA Data (rate of weight loss, volatility)",[6],0.38 µg/min
same,pest or weed control at 280 g/ha,"[7]; 168 h, 7 DAA",77.5%
same,pest or weed control at 560 g/ha,"[7]; 168 h, 7 DAA",82.5%
same,pest or weed control at 280 g/ha,"[7]; 336 h, 14 DAA",100%
same,pest or weed control at 560 g/ha,"[7]; 336 h, 14 DAA",99%
same,pest or weed control at 280 g/ha,"[7]; 504 h, 21 DAA",99%
same,pest or weed control at 560 g/ha,"[7]; 504 h, 21 DAA",96.5%
O=C(COc1ccc(Cl)cc1Cl)O/N=C/c1ccncc1 [Compound A30],pest or weed control at 280 g/ha,"[1]; 168 h, 7 DAA",62.5%
same,pest or weed control at 560 g/ha,"[1]; 168 h, 7 DAA",80%
same,pest or weed control at 280 g/ha,"[1]; 336 h, 14 DAA",77.5%
same,pest or weed control at 560 g/ha,"[1]; 336 h, 14 DAA",96.5%
same,pest or weed control at 280 g/ha,"[1]; 504 h, 21 DAA",87.5%
same,pest or weed control at 560 g/ha,"[1]; 504 h, 21 DAA",99.5%
same,pest or weed control at 280 g/ha,"[2]; 168 h, 7 DAA",85%
same,pest or weed control at 560 g/ha,"[2]; 168 h, 7 DAA",96.5%
same,pest or weed control at 280 g/ha,"[2]; 336 h, 14 DAA",90%
same,pest or weed control at 560 g/ha,"[2]; 336 h, 14 DAA",97.5%
same,pest or weed control at 280 g/ha,"[2]; 504 h, 21 DAA",100%
same,pest or weed control at 560 g/ha,"[2]; 504 h, 21 DAA",100%
same,pest or weed control at 280 g/ha,"[3]; 168 h, 7 DAA",78%
same,pest or weed control at 560 g/ha,"[3]; 168 h, 7 DAA",86.1%
same,pest or weed control at 280 g/ha,"[3]; 336 h, 14 DAA",91.5%
same,pest or weed control at 560 g/ha,"[3]; 336 h, 14 DAA",95.5%
same,pest or weed control at 280 g/ha,"[3]; 504 h, 21 DAA",95.4%
same,pest or weed control at 560 g/ha,"[3]; 504 h, 21 DAA",98.6%
same,pest or weed control at 280 g/ha,"[4]; 168 h, 7 DAA",75%
same,pest or weed control at 560 g/ha,"[4]; 168 h, 7 DAA",94%
same,pest or weed control at 280 g/ha,"[4]; 336 h, 14 DAA",96%
same,pest or weed control at 560 g/ha,"[4]; 336 h, 14 DAA",93.5%
same,pest or weed control at 280 g/ha,"[4]; 504 h, 21 DAA",92.5%
same,pest or weed control at 560 g/ha,"[4]; 504 h, 21 DAA",99%
same,pest or weed control at 280 g/ha,"[5]; 168 h, 7 DAA",80%
same,pest or weed control at 560 g/ha,"[5]; 168 h, 7 DAA",80%
same,pest or weed control at 280 g/ha,"[5]; 336 h, 14 DAA",94%
same,pest or weed control at 560 g/ha,"[5]; 336 h, 14 DAA",90%
same,pest or weed control at 280 g/ha,"[5]; 504 h, 21 DAA",98%
same,pest or weed control at 560 g/ha,"[5]; 504 h, 21 DAA",100%
same,"TGA Data (rate of weight loss, volatility)",[6],0.9679 µg/min
same,pest or weed control at 280 g/ha,"[7]; 168 h, 7 DAA",87.5%
same,pest or weed control at 560 g/ha,"[7]; 168 h, 7 DAA",80%
same,pest or weed control at 280 g/ha,"[7]; 336 h, 14 DAA",100%
same,pest or weed control at 560 g/ha,"[7]; 336 h, 14 DAA",100%
same,pest or weed control at 280 g/ha,"[7]; 504 h, 21 DAA",99%
same,pest or weed control at 560 g/ha,"[7]; 504 h, 21 DAA",94.5%
O=C(COc1ccc(Cl)cc1Cl)O/N=C/c1ccccn1 [Compound A32],pest or weed control at 280 g/ha,"[1]; 168 h, 7 DAA",55%
same,pest or weed control at 560 g/ha,"[1]; 168 h, 7 DAA",67.5%
same,pest or weed control at 280 g/ha,"[1]; 336 h, 14 DAA",74%
same,pest or weed control at 560 g/ha,"[1]; 336 h, 14 DAA",88.5%
same,pest or weed control at 280 g/ha,"[1]; 504 h, 21 DAA",87.5%
same,pest or weed control at 560 g/ha,"[1]; 504 h, 21 DAA",98.5%
same,pest or weed control at 280 g/ha,"[2]; 168 h, 7 DAA",75%
same,pest or weed control at 560 g/ha,"[2]; 168 h, 7 DAA",75%
same,pest or weed control at 280 g/ha,"[2]; 336 h, 14 DAA",72.5%
same,pest or weed control at 560 g/ha,"[2]; 336 h, 14 DAA",92.5%
same,pest or weed control at 280 g/ha,"[2]; 504 h, 21 DAA",100%
same,pest or weed control at 560 g/ha,"[2]; 504 h, 21 DAA",100%
same,pest or weed control at 280 g/ha,"[3]; 168 h, 7 DAA",74%
same,pest or weed control at 560 g/ha,"[3]; 168 h, 7 DAA",76.5%
same,pest or weed control at 280 g/ha,"[3]; 336 h, 14 DAA",87.4%
same,pest or weed control at 560 g/ha,"[3]; 336 h, 14 DAA",92.6%
same,pest or weed control at 280 g/ha,"[3]; 504 h, 21 DAA",88.8%
same,pest or weed control at 560 g/ha,"[3]; 504 h, 21 DAA",97.6%
same,pest or weed control at 280 g/ha,"[4]; 168 h, 7 DAA",70%
same,pest or weed control at 560 g/ha,"[4]; 168 h, 7 DAA",90%
same,pest or weed control at 280 g/ha,"[4]; 336 h, 14 DAA",96%
same,pest or weed control at 560 g/ha,"[4]; 336 h, 14 DAA",87.5%
same,pest or weed control at 280 g/ha,"[4]; 504 h, 21 DAA",60%
same,pest or weed control at 560 g/ha,"[4]; 504 h, 21 DAA",94%
same,pest or weed control at 280 g/ha,"[5]; 168 h, 7 DAA",82.5%
same,pest or weed control at 560 g/ha,"[5]; 168 h, 7 DAA",75%
same,pest or weed control at 280 g/ha,"[5]; 336 h, 14 DAA",97.5%
same,pest or weed control at 560 g/ha,"[5]; 336 h, 14 DAA",95%
same,pest or weed control at 280 g/ha,"[5]; 504 h, 21 DAA",97.5%
same,pest or weed control at 560 g/ha,"[5]; 504 h, 21 DAA",97.5%
same,"TGA Data (rate of weight loss, volatility)",[6],0.809 µg/min and 0.87 µg/min
same,pest or weed control at 280 g/ha,"[7]; 168 h, 7 DAA",87.5%
same,pest or weed control at 560 g/ha,"[7]; 168 h, 7 DAA",75%
same,pest or weed control at 280 g/ha,"[7]; 336 h, 14 DAA",97%
same,pest or weed control at 560 g/ha,"[7]; 336 h, 14 DAA",99.5%
same,pest or weed control at 280 g/ha,"[7]; 504 h, 21 DAA",99%
same,pest or weed control at 560 g/ha,"[7]; 504 h, 21 DAA",98%
